Test results published in PubChem BioAssay AID179 (DTP/NCI, 2004).
Several values for one entry are separate records, joined by “and”; a condition that tells them apart may be missing. Equal entries are not always repeated. Activity calls are given as the source filed them.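 How the source made its calls: active means compounds giving half or more protection of infected cells from virus-caused growth loss, again on retest; inactive means the rest.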

System: CEM cells HIV-1 protection, formazan growth assay
Test: NCI AIDS Antiviral Assay
Details: for IC50: measured here: growth of uninfected CEM cells
How it was run: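 CEM (human) cells, HIV-1 infected vs uninfected, 5-point dosing, formazan growth read-out. Retest threshold 50% protection.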

Row | SMILES | EC50 | IC50 | outcome
1 | O=C1c2scc(-c3ccccc3)c2-n2cccc21 | > 200 µM | 17.8 µM | 
2 | C=C=C(C)[Si](C)(C)C | > 200 µM | > 200 µM | 
3 | Cc1ccc(S(=O)(=O)N2CC2CCCCC=O)cc1 (centres undefined) | > 200 µM | 31.6 µM | 
4 | COc1cc(OC)c(SSCCCCS(=O)O)c(OC)c1 |  |  | inactive
5 | O=C(/C(=C/c1cccs1)c1ccccc1)c1ccccc1 | > 200 µM | > 200 µM | 
6 | N#C/C(N)=C(\C#N)N=C1OCC(O)C(O)C1O (centres undefined) |  |  | inactive
7 | CC(C(=O)OCc1ccccc1)N(Cc1ccccc1)Cc1ccccc1 (centres undefined) | > 200 µM | > 200 µM | 
8 | COc1cc2oc(-c3ccc4c(c3)OCO4)c(OC)c(=O)c2c(OC)c1O | > 200 µM | > 200 µM | 
9 | Cc1ccc(C(N)=O)cc1N=NN(C)C | > 457 µM | 269 µM | 
10 | O=C1/C(=C/c2ccc(OC(=O)c3ccccc3)cc2)CCC/C1=C\c1ccc(OC(=O)c2ccccc2)cc1 | > 100 µM | > 100 µM | 
11 | O=C1c2ccccc2C(=O)N1CCC[P+](c1ccccc1)(c1ccccc1)c1ccccc1 | > 200 µM | 95.5 µM | 
12 | O=C1CC(=O)NC(=NN2C(=O)CSC2c2ccc(Cl)c(Cl)c2)N1 (centres undefined) | > 200 µM | 102 µM | 
13 | Cn1c(=O)c2ccccc2c2nc3ccccc3nc21 |  |  | inactive
14 | COC(CC[P+](c1ccccc1)(c1ccccc1)c1ccccc1)(C(=O)c1ccccc1)c1ccccc1 (centres undefined) | > 20 µM | 0.447 µM | 
15 | O=C(O)c1ccc2c(c1)S(=O)(=O)c1ccccc1C2=O | > 200 µM | > 200 µM | 
16 | COc1ccc(/C(C#N)=C/c2ccc(OC)c(OC)c2)cc1 | > 200 µM | 64.6 µM and > 33.9 µM | 
17 | S=C(N/N=C/c1ccccn1)N1CCCCC1 | > 0.2 µM | 0.011 µM | 
18 | Oc1ccccc1C=Nc1ccc(Oc2ccc(Cl)cc2)c(Cl)c1 | > 200 µM | 13.2 µM | 
19 | CCN(CC)CSc1nc2ccccc2s1 |  |  | inactive
20 | COc1ccc(NC(=O)COC(=O)c2cccc3c(=O)c4ccccc4[nH]c23)cc1 |  |  | inactive
21 | CCC1C(C#N)=C(O)NC(O)=C1C#N | > 1290 µM | 813 µM | 
22 | CC(=O)SC(C[N+](=O)[O-])c1ccc2c(c1)OCO2 (centres undefined) | > 200 µM | 3.98 µM | 

Row | SMILES | EC50 | IC50 | outcome
23 | O=S1(=O)COc2ccccc2-c2ncncc21 | 47.9 µM | > 200 µM | 
24 | COc1cccc2c1[C@H]1OC(=O)NC1CCCCC2 (some centres undefined) | > 200 µM | > 200 µM | 
25 | CCCC(=O)OC1C(C(O)CO)OC2OC(C)(C)OC21 (centres undefined) | > 871 µM | > 871 µM | 
26 | Cc1cccc(CC(Cc2ccc(C)cc2C(=O)O)C(=O)O)c1 (centres undefined) | > 200 µM | > 200 µM | 
27 | COc1ccccc1CNCCCCCNCCCCCCCCCCNCCCCCNCc1ccccc1OC | > 200 µM | 28.8 µM | 
28 | CC(C)N=C=NC(C)C | > 380 µM | > 380 µM | 
29 | NNC(=S)NC1CC(c2ccccc2)Oc2ccccc21 (centres undefined) |  |  | inactive
30 | C=CCN1CC2CON(C(=O)C(OC)(c3ccccc3)C(F)(F)F)C2C1C(C)C (centres undefined) | > 200 µM | 37.2 µM | 
31 | Clc1nn2nnnc2c2ccccc12 | > 66.1 µM | 1.23 µM | 
32 | CCCCCCCCCCN(CCCCCCCCCC)C(=O)COc1c2cc(C(C)(C)C)cc1Cc1cc(C(C)(C)C)cc(c1OCC(=O)N(CCCCCCCCCC)CCCCCCCCCC)Cc1cc(C(C)(C)C)cc(c1OCC(=O)N(CCCCCCCCCC)CCCCCCCCCC)Cc1cc(C(C)(C)C)cc(c1OCC(=O)N(CCCCCCCCCC)CCCCCCCCCC)C2 | > 50.1 µM | 3.39 µM | 
33 | O=C(Nc1ccc([N+](=O)[O-])cc1C(=O)O)c1ccc([N+](=O)[O-])cc1 |  |  | inactive
34 | CN1C(=O)[C@H](c2c[nH]c3ccccc23)[C@H](c2c[nH]c3ccccc23)C1=O | > 129 µM | 38 µM | 
35 | CC1=CC(=O)Nc2cncnc2N1 | > 77.6 µM | > 77.6 µM | 
36 | CN1OC2OC(=O)OC2[C@H]1[C@H]1O[C@H](c2ccccc2)OC1(C)c1cc(OC(=O)c2ccccc2)ccc1OC(=O)c1ccccc1 (some centres undefined) | > 2.34 µM | > 2.34 µM | 
37 | CC1(C)OC(=O)C(c2cccs2)C(=O)O1 | > 44.7 µM | > 44.7 µM | 
38 | COc1ccccc1NC(=O)/C(C=NC(=S)c1ccncc1)=C(\C)O |  |  | inactive
39 | Cc1ccc(C2=C(c3ccccc3)C(Br)(c3ccccc3)C(c3ccccc3)=C2c2ccc(C)cc2)cc1 | > 26.9 µM | > 26.9 µM | 
40 | CC(=O)Oc1c2oc3ccc(Cl)cc3c(=O)c2c(O)c2ccsc12 | > 200 µM | > 200 µM | 
41 | O=C(CCC1C(=O)NC(=S)NC1=O)c1ccc2ccccc2c1 | > 110 µM | > 110 µM | 
42 | NNc1nncc2n[nH]nc12 | > 200 µM | > 200 µM | 
43 | O=S(=O)(C1CCCCC1)N1N=NC2CCCCC21 (centres undefined) | > 200 µM | > 200 µM | 
44 | CCOC(=O)Nc1cc(C)c(NC(=O)CN(CC)CC)c(C)c1 | > 200 µM | > 200 µM | 

Row | SMILES | EC50 | IC50 | outcome
45 | CC(C)NCC(O)COc1cccc2ccccc12 (centres undefined) | > 200 µM | 120 µM | 
46 | c1ccc(-c2nnc(SCc3nc4ccccc4[nH]3)o2)cc1 | > 200 µM | 31.6 µM | 
47 | Cn1c2ccccc2n2c(=O)c(-c3ccc(Cl)cc3)nnc12 | > 200 µM | > 200 µM | 
48 | Cc1ccc(N=Nc2c(C)c(C#N)c(=S)n(C3OC(CO)C(O)C(O)C3O)c2-c2ccccc2)cc1 (centres undefined) | > 200 µM | 18.6 µM | 
49 | CCOc1nc2sc3c(c2c(=O)n1CCSSCCn1c(OCC)nc2sc4c(c2c1=O)CCCC4)CCCC3 | > 100 µM | > 100 µM | 
50 | COc1ccc(C/C=C(\C)CCO)cc1 | > 200 µM | 126 µM | 
51 | COc1ccccc1N1C(=O)/C(=C\c2cc(OC)c(OC)c(OC)c2)SC1c1ccccc1 (centres undefined) | > 200 µM | 39.8 µM | 
52 | CC1=C(C(=O)Nc2ccccc2)C(c2ccc([N+](=O)[O-])cc2)C(C(=O)Nc2ccccc2)=C(C)N1 | > 15.5 µM | > 15.5 µM | 
53 | Cc1c(Cl)cccc1Nc1ncccc1C(=O)OCC(O)CO (centres undefined) | > 200 µM | 91.2 µM | 
54 | CCc1cc(CCC(=O)Nc2c(C)cccc2C)[nH]n1 | > 912 µM | > 912 µM | 
55 | CC(C)(C)[Si](C)(C)OC1C(/C=N\O)OC(n2cnc3c(N)ncnc32)C1O[Si](C)(C)C(C)(C)C (centres undefined) | > 200 µM | 3.02 µM | 
56 | Cc1ccc(/C=c2\c(=O)[nH]c3nc4ccccc4c(=O)n23)cc1 | > 200 µM | 22.4 µM | 
57 | Cc1cn(C2CC(OC3CCCCO3)C(CO)O2)c(=O)[nH]c1=O (centres undefined) | > 200 µM | > 200 µM | 
58 | COC(=O)/C=C1\C=CC=CC12C(C(=O)OC)c1ccccc1C(C(=O)OC)C2C(=O)OC (centres undefined) | > 200 µM | > 200 µM | 
59 | C(=C\c1c2oc(-c3ccccc3)cc(-c3ccccc3)c-2c2ccccc12)/C=C1\c2ccccc2-c2c(-c3ccccc3)cc(-c3ccccc3)[o+]c21 | > 6.76 µM | > 6.76 µM | 
60 | CC(=O)OC12CC(C(F)(F)F)(C(F)(F)F)OC1(OC(C)=O)CC(C(F)(F)F)(C(F)(F)F)O2 (centres undefined) |  |  | inactive
61 | CC(=O)OC1C(=O)C(O)C(C)OC1O[C@@H]1C[C@@]2(C)[C@@H]3CC=C4[C@@H](C[C@H](O)C(=O)C4(C)C)[C@]3(C)C(=O)C[C@]2(C)[C@H]1[C@@](C)(O)C(=O)/C=C/C(C)(C)O (some centres undefined) | > 0.501 µM | 0.0832 µM | 
62 | CCOC(=O)C1(Cc2ccc3c(c2)CCC3)Cc2cc3c(cc2C1)CCC3 | > 200 µM | 15.5 µM | 
63 | S=C(Nc1c2c(nc3ccccc13)CCCC2)Nc1c2c(nc3ccccc13)CCCC2 | > 200 µM | > 200 µM | 
64 | CN(C)CCCOCCn1c2c(c3ccccc31)CCCC2 | > 200 µM | 32.4 µM | 
65 | CC(=O)OC1CCN(C)CC1CCl (centres undefined) | > 200 µM | > 200 µM | 
66 | Cc1cc(N(CCC#N)CCC#N)ccc1/C=C1N=C(/C=C/c2ccccc2)N(c2ccc(S(N)(=O)=O)cc2)C\1=O |  |  | inactive

Row | SMILES | EC50 | IC50 | outcome
67 | Cc1ccc(OCC2OC(n3cnc4nc(Nc5ccc(Cl)c(Cl)c5)nc(Cl)c43)CC2Oc2ccc(C)cc2)cc1 (centres undefined) | > 100 µM | > 100 µM | 
68 | Cc1cc(N(CCC#N)CCC#N)ccc1C=Nc1ccc(C(=O)NN2C(=O)/C(=C/c3ccc(N(CCC#N)CCC#N)cc3)N=C2c2cc([N+](=O)[O-])ccc2Cl)cc1 | > 44.7 µM | > 44.7 µM | 
69 | CCOC(=O)/C=C/[C@H](O[Si](CC)(CC)CC)C(C)(C)C | > 200 µM | > 200 µM | 
70 | N=CCCN(CCC=N)c1ccc(/C=C2\CN(NC(=O)c3ccc(Cl)cc3)C(c3ccccc3)=N2)cc1 | > 70.8 µM | > 70.8 µM | 
71 | CN(C)C(=O)COc1ccc(Cl)cc1Cl | > 200 µM | > 200 µM | 
72 | Cc1ccc(S(=O)(=O)N2CCn3ncc(C#N)c32)cc1 | > 186 µM | > 186 µM | 
73 | Cc1c(O)c(OC2OC(CO)C(O)C(O)C2O)cc2c1C=C[C@@H]1[C@@]2(C)C(=O)C[C@]2(C)[C@@H]([C@@](C)(O)C(=O)CCC(C)(C)O)[C@H](O)C[C@@]12C (some centres undefined) | > 200 µM | 93.3 µM | 
74 | N=c1c2sc3nc4ccccc4n3c2ncn1Cc1ccccc1 | > 100 µM | > 100 µM | 
75 | CCOP(=O)(/N=C1/C2CCC(C2)C1C)OCC (centres undefined) | > 234 µM | > 234 µM | 
76 | Cc1nc2sccn2c1C(=O)NN | > 1260 µM | 912 µM | 
77 | NC(=O)C12CCC1C1CCCCC12N1CCOCC1 (centres undefined) |  |  | inactive
78 | Nc1ccc2nc(Nc3ccc(Cl)c(Cl)c3)cnc2c1 | > 23.4 µM | > 23.4 µM | 
79 | CC(=O)N/N=C/c1ccc(N(C)C)cc1 | > 200 µM | > 200 µM | 
80 | O=C(O)c1[nH]c(C(=O)O)c(CC(F)(F)C(F)(F)C(F)(F)F)c1CC(F)(F)C(F)(F)C(F)(F)F |  |  | inactive
81 | CCCCCCCCCCCCCCCCCCCCCCNc1ccn(C2CC(OP(=O)(O)OCC3OC(n4cc(C)c(=O)[nH]c4=O)CC3N=[N+]=[N-])C(COP(=O)(O)OCC3CCC(n4ccc(N)nc4=O)O3)O2)c(=O)n1 (centres undefined) | 0.234 µM | 38 µM | 
82 | Cc1cccc(C)c1NC(=O)C(=O)Cc1nc2ccccc2s1 |  |  | inactive
83 | O=c1cc(-c2ccc(O)c(O)c2)oc2cc(OC3OC(CO)C(O)C(O)C3O)cc(O)c12 (centres undefined) | > 200 µM | 15.5 µM | 
84 | COC(=O)NN(C(=O)OC)c1c(-c2ccccc2)nc(SC)n1N | > 200 µM | > 200 µM | 
85 | CC(=O)Nc1ccc(N)c2cc(S(=O)(=O)O)ccc12 | > 200 µM | > 200 µM | 
86 | C1CCC(N2CSCSC2)CC1 | > 200 µM | 107 µM | 
